Laboratory results: ChEMBL document CHEMBL1159249, “Malyngamide H, an ichthyotoxic amide possessing a new carbon skeleton from the Caribbean cyanobacterium Lyngbya majuscula” (J Nat Prod, 1995)
≈ marks a conversion by molar mass, not a printed value.

Experiments:
Type in all cases: organism-based
[1] = Ichthyotoxicity in gold fish assessed as death after 1 hr; details: carassius auratus, in vivo
Carassius auratus = assay: Ichthyotoxicity in gold fish assessed as inability to swim after 1 hr
Artemia = assay: Toxicity in brine shrimp; details: in vivo

## C=C(CCNC(=O)CC/C=C/C[C@H](CCCCCCC)OC)[C@@]12O[C@@H]1CC=C(C)C2=O [MALYNGAMIDE H]
[1]
  LC50 at 1 h: 5 µg/mL (≈ 11.6 µM)
Carassius auratus
  EC50: 2 µg/mL (≈ 4.63 µM)
Artemia
  Activity: Not Active
